Source: patent publication US10858352B2, “Pharmaceutical compounds” (Heptares Therapeutics Limited, priority 2018, dated 2020)
Read-outs that look alike come from different tables or passages of the source.

Experiments:
Type in all cases: cell-based
[1] = target: T1, human muscarinic M4 receptor (Homo sapiens, UniProt P08173); assay: Alphascreen Surefire phospho-ERK1/2 functional assay, M4; conditions: for EC50 / % Emax cf. ACh (M4) / pEC50 M4: CHO cells stably expressing human M4; for EC50 / pEC50 M4: agonist 5 min, 37° C.; for EC50: read-out: pEC50 M4 (converted); for Emax: CHO, read-out: % Emax cf. ACh (M4), CHO cells stably expressing human M4; for Emax / % Emax cf. ACh (M4): Emax relative to ACh
T1 construct: expressed in transfected cells
T1 sequence (P08173 1-479): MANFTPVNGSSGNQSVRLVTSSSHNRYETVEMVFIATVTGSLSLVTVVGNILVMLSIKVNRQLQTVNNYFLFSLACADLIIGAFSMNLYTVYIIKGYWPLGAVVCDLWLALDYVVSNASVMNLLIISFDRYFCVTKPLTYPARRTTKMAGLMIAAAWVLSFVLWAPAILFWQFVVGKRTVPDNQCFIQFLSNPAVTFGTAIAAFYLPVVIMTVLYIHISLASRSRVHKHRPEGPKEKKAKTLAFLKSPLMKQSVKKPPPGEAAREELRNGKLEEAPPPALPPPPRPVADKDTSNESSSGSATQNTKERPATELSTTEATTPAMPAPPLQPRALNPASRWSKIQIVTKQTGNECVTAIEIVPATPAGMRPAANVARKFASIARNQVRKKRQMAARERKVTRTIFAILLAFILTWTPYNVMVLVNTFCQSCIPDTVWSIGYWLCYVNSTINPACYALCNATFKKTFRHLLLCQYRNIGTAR
Method: (§1) ERK1/2 phosphorylation is a downstream consequence of both Gq/11 and Gi/o protein coupled receptor activation, making it highly suitable for the assessment of M1, M3 (Gq/11 coupled) and M2, M4 receptors (Gi/o coupled), rather than using different assay formats for different receptor subtypes. CHO cells stably expressing the human muscarinic M1, M2, M3 or M4 receptor were plated (25K/well) onto 96-well tissue culture plates in MEM-alpha+10% dialysed FBS. Once adhered, cells were serum-starved overnight. Agonist stimulation was performed by the addition of 5 μL agonist to the cells for 5 min (37° C.). Media was removed and 50 μL of lysis buffer added. After 15 min, a 4 μL sample was transferred to 384-well plate and 7 μL of detection mixture added. […]

[2] = target: T2, human muscarinic M1 receptor (Homo sapiens, UniProt P11229); assay: Alphascreen Surefire phospho-ERK1/2 functional assay, M1; conditions: for EC50 / pEC50 M1: agonist 5 min, 37° C.; for Emax: CHO, read-out: % Emax cf. ACh (M1), CHO cells stably expressing human M1; for Emax / % Emax cf. ACh (M1): Emax relative to ACh
T2 sequence (P11229 1-460): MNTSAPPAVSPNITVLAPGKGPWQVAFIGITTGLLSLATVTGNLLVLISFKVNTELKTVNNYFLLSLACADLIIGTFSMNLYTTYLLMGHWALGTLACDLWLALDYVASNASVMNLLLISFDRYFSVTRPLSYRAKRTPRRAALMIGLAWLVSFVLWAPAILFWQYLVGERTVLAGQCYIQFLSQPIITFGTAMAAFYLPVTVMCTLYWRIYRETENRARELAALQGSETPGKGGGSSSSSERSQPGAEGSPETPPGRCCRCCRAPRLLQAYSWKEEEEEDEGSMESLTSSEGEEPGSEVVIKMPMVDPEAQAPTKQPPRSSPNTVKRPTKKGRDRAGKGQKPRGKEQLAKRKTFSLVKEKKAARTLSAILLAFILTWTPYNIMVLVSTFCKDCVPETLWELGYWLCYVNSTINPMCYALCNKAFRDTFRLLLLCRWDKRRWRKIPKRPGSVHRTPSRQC
Method: as §1

[3] = target: T3, human muscarinic M3 receptor (Homo sapiens, UniProt P20309); assay: Alphascreen Surefire phospho-ERK1/2 functional assay, M3; conditions: for Emax: CHO
T3 construct: expressed in transfected cells
Method: as §1

[4] = target: T4, human muscarinic M2 receptor (Homo sapiens, UniProt P08172); assay: Alphascreen Surefire phospho-ERK1/2 functional assay, M2; conditions: for Emax: CHO
T4 sequence (P08172 1-466): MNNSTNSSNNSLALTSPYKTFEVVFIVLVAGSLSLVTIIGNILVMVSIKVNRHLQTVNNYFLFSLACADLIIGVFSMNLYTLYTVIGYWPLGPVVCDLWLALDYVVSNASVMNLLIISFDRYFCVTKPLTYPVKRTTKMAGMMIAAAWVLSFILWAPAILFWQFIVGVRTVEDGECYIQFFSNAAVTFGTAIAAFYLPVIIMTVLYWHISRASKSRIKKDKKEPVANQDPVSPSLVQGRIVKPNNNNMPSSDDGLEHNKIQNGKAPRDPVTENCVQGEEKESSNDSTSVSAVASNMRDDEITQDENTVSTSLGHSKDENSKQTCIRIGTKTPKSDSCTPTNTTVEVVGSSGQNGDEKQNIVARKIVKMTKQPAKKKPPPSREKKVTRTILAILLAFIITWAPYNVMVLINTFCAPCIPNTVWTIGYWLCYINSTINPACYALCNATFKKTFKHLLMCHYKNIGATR
Method: as §1

[5] = CHO cells stably expressing human M1, read-out: pEC50 M1 (converted)
[6] = CHO cells stably expressing human M3, agonist 5 min, 37° C., read-out: pEC50 M3 (converted)
[7] = CHO cells stably expressing human M2, agonist 5 min, 37° C., read-out: pEC50 M2 (converted)
[8] = CHO cells stably expressing human M1

T3 sequence (P20309 whole entry): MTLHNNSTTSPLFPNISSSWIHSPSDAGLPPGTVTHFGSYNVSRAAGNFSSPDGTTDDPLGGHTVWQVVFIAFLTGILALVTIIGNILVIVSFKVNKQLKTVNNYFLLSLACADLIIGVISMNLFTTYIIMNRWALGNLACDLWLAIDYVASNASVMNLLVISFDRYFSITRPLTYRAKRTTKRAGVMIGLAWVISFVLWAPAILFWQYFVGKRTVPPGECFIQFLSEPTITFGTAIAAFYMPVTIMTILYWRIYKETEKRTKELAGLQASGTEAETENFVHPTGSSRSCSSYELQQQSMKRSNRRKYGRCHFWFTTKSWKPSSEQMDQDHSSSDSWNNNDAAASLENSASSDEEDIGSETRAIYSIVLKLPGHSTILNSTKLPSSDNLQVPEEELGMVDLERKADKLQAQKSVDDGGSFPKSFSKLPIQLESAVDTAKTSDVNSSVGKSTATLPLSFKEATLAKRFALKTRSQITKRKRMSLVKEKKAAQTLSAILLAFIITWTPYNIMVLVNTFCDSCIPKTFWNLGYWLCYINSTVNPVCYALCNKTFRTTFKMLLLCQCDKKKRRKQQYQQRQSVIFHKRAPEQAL

| SMILES | EC50 [1] | Emax [1] | EC50 [2, 5] | Emax [2] | % Emax cf. ACh (M4) [1] | % Emax cf. ACh (M1) [2, 8] | further results |
| --- | --- | --- | --- | --- | --- | --- | --- |
| CCN(CC)C(=O)[C@H]1[C@@H]2CN(C3CC4COCC(C3)N4c3nc(C)no3)C[C@@H]21 (single isomer, unassigned) [9-2 Isomer 2] | 741 nM | 74% | 219 nM | 109% |  |  | EC50 [3, 6]: 6310 nM; Emax ([3]; read-out: % Emax cf. ACh (M3)): 42%; EC50 [4, 7]: > 20000 nM; Emax ([4]; read-out: % Emax cf. ACh (M2)): 27% |
| Cc1noc(N2C3CCC2CC(N2CCC(C(=O)NC4(C)CCC4)CC2)C3)n1 (single isomer, unassigned) [6-5 Isomer 2] | 195 nM | 79% | 148 nM | 100% |  |  | EC50 [3, 6]: > 20000 nM; Emax ([3]; read-out: % Emax cf. ACh (M3)): 11%; EC50 [4, 7]: > 20000 nM; Emax ([4]; read-out: % Emax cf. ACh (M2)): 31% |
| Cc1noc(N2CC3CCC2CC3N2CCC3(CC2)CNC(=O)C3)n1 (single isomer, unassigned) [12-1 Isomer 2] | 117 nM |  | 32.4 nM |  | (30) % | (106) % | EC50 [3, 6]: > 20000 nM; Emax ([3]; read-out: % Emax cf. ACh (M3), CHO cells stably expressing human M3, Emax relative to ACh): 2%; EC50 [4, 7]: > 20000 nM; Emax ([4]; read-out: % Emax cf. ACh (M2), CHO cells stably expressing human M2, Emax relative to ACh): 6% |
| CC(=O)N(CC1(C)CCC1)C1CCN(C2CC3CCC(C2)N3c2nc(C)no2)CC1 (single isomer, unassigned; isomer 2) [12-18 Isomer 2] |  |  |  |  | (92) % | (92) % | pEC50 M4 [1]: 7.83; pEC50 M1 [2, 8]: 8.63; % Emax cf. ACh (M3) ([3]; CHO cells stably expressing human M3, Emax relative to ACh): (48) %; pEC50 M3 ([3]; CHO cells stably expressing human M3, agonist 5 min, 37° C.): 5.72; % Emax cf. ACh (M2) ([4]; CHO cells stably expressing human M2, Emax relative to ACh): (90) %; pEC50 M2 ([4]; CHO cells stably expressing human M2, agonist 5 min, 37° C.): 6.59 |
| O=C1CC2(CCN(C3CC4CCC(C3)N4c3nc(C(F)(F)F)no3)CC2)CN1 (single isomer, unassigned) [12-3 Isomer 1] | > 20000 nM | 14% |  | 67% |  |  | EC50 ([2]; pEC50 M1, CHO cells stably expressing human M1): 31.6 nM; EC50 [3]: > 20000 nM; Emax ([3]; read-out: % Emax cf. ACh (M3)): 31%; EC50 [4]: > 20000 nM; Emax ([4]; read-out: % Emax cf. ACh (M2)): 19% |
| Cc1noc(N2CCCC(N3CCC4(CC3)CNC(=O)C4)CC2)n1 (single isomer, unassigned) [10-2 Isomer 2] |  |  | 490 nM |  | (15) % | (53) % | pEC50 M4 [1]: <4.70 |
| CCC1NC(=O)OC12CCN(C1CCCN(c3nc(C)no3)CC1)CC2 (single isomer, unassigned) [10-4 Isomer 1] | 100 nM |  | 676 nM |  | (85) % | (123) % |  |
| Cc1noc(N2CC3(CCC(N4CCC(n5cccn5)CC4)C3)C2)n1 (single isomer, unassigned) [3-1 Isomer 2] | 1230 nM | 68% | 8320 nM | 58% |  |  |  |
| Cc1noc(N2C3CCCC2CC(N2CCC4(CC2)CNC(=O)C4)C3)n1 (single isomer, unassigned) [8-2 Isomer 1] | > 20000 nM | 9% | 214 nM | 30% |  |  |  |
| CCC1NC(=O)OC12CCN(C1CCCN(c3nc(C)no3)CC1)CC2 (single isomer, unassigned) [10-4 Isomer 2] | 23.4 nM |  | 55 nM |  | (64) % | (58) % |  |
| Cc1noc(N2CCCC(N3CCC(n4cccn4)CC3)CC2)n1 (single isomer, unassigned) [10-1 Isomer 1] | 129 nM | 73% | 1350 nM | 32% |  |  |  |
| Cc1noc(N2CCCC(N3CCC(N4CCCC4c4cnn(C)c4)CC3)CC2)n1 (single isomer, unassigned) [10-10 Isomer 2a] | 1450 nM |  |  |  | (52) % | (3) % | pEC50 M1 [2, 8]: <4.70 |
| Cc1noc(N2C3CCCC2CC(N2CCC(n4cccn4)CC2)C3)n1 (single isomer, unassigned) [8-1 Isomer 2] | 1260 nM | 38% | > 20000 nM | 24% |  |  |  |
